The subject of experiment [1] is antibodies in sera from SARS patients (sera 1a, 1b, 2, 6, 37, 62, London, SARS-yellow, SARS-green). Format: binding, human. The arrangement: Binding of serum 6 to linear peptides of protein X1 of SARS-CoV Urbani / Binding of serum 37 to linear peptides of protein X1 of SARS-CoV Urbani / Binding of serum 6 to looped/cyclic peptide (PEPSCAN-ELISA) / Binding of serum 37 to looped/cyclic peptide (PEPSCAN-ELISA) / Binding of serum 37 to looped/cyclic peptides of protein X1 of SARS-CoV Urbani / Binding of serum 6 to linear peptides of protein X2 / Binding of serum 37 to linear peptides of protein X2 / Binding of serum 37 to looped/cyclic peptides of protein X2 of SARS-CoV Urbani / Binding of serum 6 to linear peptides of protein M of SARS-CoV Urbani / Binding of serum 37 to linear peptides of protein M of SARS-CoV Urbani / Binding of serum 6 to looped/cyclic peptides of protein M of SARS-CoV Urbani / Binding of serum 37 to looped/cyclic peptides of protein M of SARS-CoV Urbani / Binding of serum 6 to linear peptides of protein X3 of SARS-CoV Urbani / Binding of serum 37 to linear peptides of protein X3 of SARS-CoV Urbani / Binding of serum 37 to looped/cyclic peptides of protein X3 of SARS-CoV Urbani / Binding of serum 6 to linear peptides of protein X4 of SARS-CoV Urbani / Binding of serum 37 to linear peptides of protein X4 of SARS-CoV Urbani / Binding of serum 37 to looped/cyclic peptides of protein X4 of SARS-CoV Urbani / Binding of serum 6 to linear peptides of protein X5 of SARS-CoV Urbani / Binding of serum 37 to linear peptides of protein X5 of SARS-CoV Urbani / Binding of serum 37 to looped/cyclic peptides of protein X5 of SARS-CoV Urbani / Binding of serum 6 to linear peptides of protein N of SARS-CoV Urbani / Binding of serum 37 to linear peptides of protein N of SARS-CoV Urbani / Binding of serum 6 to linear peptide (PEPSCAN-ELISA) / Binding of serum 1a to looped/cyclic peptides of protein N of SARS-CoV Urbani / Binding of serum 1b to looped/cyclic peptides of protein N of SARS-CoV Urbani / Binding of serum 2 to looped/cyclic peptides of protein N of SARS-CoV Urbani / Binding of serum 6 to looped/cyclic peptides of protein N of SARS-CoV Urbani / Binding of serum 37 to looped/cyclic peptides of protein N of SARS-CoV Urbani / Binding of serum 62 to looped/cyclic peptides of protein N of SARS-CoV Urbani / Binding of serum London to looped/cyclic peptides of protein N of SARS-CoV Urbani / Binding of serum SARS-green to looped/cyclic peptides of protein N of SARS-CoV Urbani: unit not given here.

For experiment [2], the system named is rabbit serum obtained by immunizing a rabbit with the SARS-CoV strain Frankfurt 1. Format: binding. The arrangement: Binding of a rabbit serum to linear peptides / Binding of a rabbit serum to looped peptides / Rabbit serum linear peptides / Rabbit serum looped peptides / Binding of a rabbit serum to linear peptides of protein N of SARS-CoV Urbani (Rabbit serum linear peptides) / Binding of a rabbit serum to looped/cyclic peptides of protein N of SARS-CoV Urbani (Rabbit serum looped peptides): unit not given here.

For experiment [3], the system named is control sera (pooled serum of ten healthy LUMC hospital workers; commercial negative donor pooled serum from the Dutch bloodbank). The format is binding, human. On the set-up: Binding of Control serum LUMC to linear peptides / Binding of Control serum Blood-bank to linear peptides / Binding of Control serum LUMC to looped peptides / Binding of Control Serum Blood-Bank to Looped peptides / Binding of Control serum LUMC to linear peptides of the protein M of SARS-CoV Urbani / Binding of Control serum Blood-bank to linear peptides of the protein M of SARS-CoV Urbani / Binding of Control serum LUMC to looped peptides of the protein M of SARS-CoV Urbani / Binding of Control Serum Blood-Bank to Looped peptides of the protein M of SARS-CoV Urbani: unit not given here.

On to LQCINACRIIMRCWL, for which, in experiment [1], the “Binding of serum 1a to linear peptides of protein X1 of SARS-CoV Urbani” value amounted to 0.7, the “Binding of serum 1a to looped/cyclic peptide (PEPSCAN-ELISA)” value turned out to be 0.5, the “Binding of serum 1b to linear peptides of protein X1 of SARS-CoV Urbani” value was found to be 0.5 and the “Binding of serum 1b to looped/cyclic peptide (PEPSCAN-ELISA)” value is listed as 0.3. In experiment [1], the “Binding of serum 2 to linear peptides of protein X1 of SARS-CoV Urbani” value turned out to be 0.5, the “Binding of serum 2 to looped/cyclic peptide (PEPSCAN-ELISA)” value was 0.6, the “Binding of serum 6 to linear peptides of protein X1 of SARS-CoV Urbani” value is 0.6 and the “Binding of serum 6 to looped/cyclic peptide (PEPSCAN-ELISA)” value was 1.4. In addition, in experiment [1], the “Binding of serum 37 to linear peptides of protein X1 of SARS-CoV Urbani” value was 0.7, the “Binding of serum 37 to looped/cyclic peptide (PEPSCAN-ELISA)” value is 0.6, the “Binding of serum 62 to linear peptides of protein X1 of SARS-CoV Urbani” value was 0.6 and the “Binding of serum 62 to looped/cyclic peptide (PEPSCAN-ELISA)” value is reported as 0.9. For the same sequence, in experiment [1], the “Binding of serum London to linear peptides of protein X1 of SARS-CoV Urbani” value came out at 0.3, the “Binding of serum London to looped/cyclic peptide (PEPSCAN-ELISA)” value is reported as 1.7, the “Binding of serum SARS-green to linear peptides of protein X1 of SARS-CoV Urbani” value came out at 0.1 and the “Binding of serum SARS-green to looped/cyclic peptide (PEPSCAN-ELISA)” value is given as 0.2. For the same sequence, in experiment [1], the “Binding of serum SARS-yellow to linear peptides of protein X1 of SARS-CoV Urbani” value is on record as 0.3 and the “Binding of serum SARS-yellow to looped/cyclic peptide (PEPSCAN-ELISA)” value is on record as 0.4. The “Recognition of the peptide by the rabbit serum” value in experiment [2] is reported as “recognized”. For the same sequence, in experiment [3], the “Binding of Control Serum Blood-Bank to Looped peptides” value amounted to 0.7, the “Binding of Control serum Blood-bank to linear peptides” value is reported as 0.9, the “Binding of Control serum LUMC to linear peptides” value was found to be 0.7 and the “Binding of Control serum LUMC to looped peptides” value came to 0.6.

With LQFAYSNRNRFLYII, in experiment [1], the “Binding of serum 1a to linear peptides of protein M of SARS-CoV Urbani” value was found to be 0.7, the “Binding of serum 1a to looped/cyclic peptides of protein M of SARS-CoV Urbani” value is recorded as 0.7, the “Binding of serum 1b to linear peptides of protein M of SARS-CoV Urbani” value turned out to be 0.5 and the “Binding of serum 1b to looped/cyclic peptides of protein M of SARS-CoV Urbani” value is 0.5. In addition, in experiment [1], the “Binding of serum 2 to linear peptides of protein M of SARS-CoV Urbani” value is given as 0.6, the “Binding of serum 2 to looped/cyclic peptides of protein M of SARS-CoV Urbani” value was determined as 0.5, the “Binding of serum 6 to linear peptides of protein M of SARS-CoV Urbani” value stood at 0.3 and the “Binding of serum 6 to looped/cyclic peptides of protein M of SARS-CoV Urbani” value is listed as 0.7. Moreover, in experiment [1], the “Binding of serum 37 to linear peptides of protein M of SARS-CoV Urbani” value is 0.7, the “Binding of serum 37 to looped/cyclic peptides of protein M of SARS-CoV Urbani” value is recorded as 0.6, the “Binding of serum 62 to linear peptides of protein M of SARS-CoV Urbani” value is given as 0.7 and the “Binding of serum 62 to looped/cyclic peptides of protein M of SARS-CoV Urbani” value is 0.6. Besides, in experiment [1], the “Binding of serum London to linear peptides of protein M of SARS-CoV Urbani” value is 0.2, the “Binding of serum London to looped/cyclic peptides of protein M of SARS-CoV Urbani” value is 0.2, the “Binding of serum SARS-green to linear peptides of protein M of SARS-CoV Urbani” value came out at 0.2 and the “Binding of serum SARS-green to looped/cyclic peptides of protein M of SARS-CoV Urbani” value is 0.4. In experiment [1], the “Binding of serum SARS-yellow to linear peptides of protein M of SARS-CoV Urbani” value is 0.0 and the “Binding of serum SARS-yellow to looped/cyclic peptides of protein M of SARS-CoV Urbani” value is 0.5. In experiment [2], the “Rabbit serum linear peptides” value came out at 0.6 and the “Rabbit serum looped peptides” value turned out to be 0.4. For the same sequence, in experiment [3], the “Binding of Control Serum Blood-Bank to Looped peptides of the protein M of SARS-CoV Urbani” value is 0.6, the “Binding of Control serum Blood-bank to linear peptides of the protein M of SARS-CoV Urbani” value is on record as 0.6, the “Binding of Control serum LUMC to linear peptides of the protein M of SARS-CoV Urbani” value turned out to be 0.4 and the “Binding of Control serum LUMC to looped peptides of the protein M of SARS-CoV Urbani” value stood at 0.6.

As for LQTLVLKMLHSSSLT, in experiment [1], the “Binding of serum 1a to linear peptides of protein X2” value came out at 0.7, the “Binding of serum 1a to looped/cyclic peptides of protein X2 of SARS-CoV Urbani” value is 0.4, the “Binding of serum 1b to linear peptides of protein X2” value is 0.5 and the “Binding of serum 1b to looped/cyclic peptides of protein X2 of SARS-CoV Urbani” value stood at 0.4. Besides, in experiment [1], the “Binding of serum 2 to linear peptides of protein X2” value is on record as 0.5, the “Binding of serum 2 to looped/cyclic peptides of protein X2 of SARS-CoV Urbani” value is given as 0.3, the “Binding of serum 6 to linear peptides of protein X2” value was found to be 0.4 and the “Binding of serum 6 to looped/cyclic peptides of protein X2 of SARS-CoV Urbani” value came to 0.5. Besides, in experiment [1], the “Binding of serum 37 to linear peptides of protein X2” value is reported as 0.6, the “Binding of serum 37 to looped/cyclic peptides of protein X2 of SARS-CoV Urbani” value turned out to be 0.3, the “Binding of serum 62 to linear peptides of protein X2” value came out at 0.6 and the “Binding of serum 62 to looped/cyclic peptides of protein X2 of SARS-CoV Urbani” value came out at 0.4. In experiment [1], the “Binding of serum London to linear peptides of protein X2” value was found to be 0.4, the “Binding of serum London to looped/cyclic peptides of protein X2 of SARS-CoV Urbani” value amounted to 0.5, the “Binding of serum SARS-green to linear peptides of protein X2” value came out at 0.5 and the “Binding of serum SARS-green to looped/cyclic peptides of protein X2 of SARS-CoV Urbani” value amounted to 0.3. In experiment [1], the “Binding of serum SARS-yellow to linear peptides of protein X2” value was found to be 0.7 and the “Binding of serum SARS-yellow to looped/cyclic peptides of protein X2 of SARS-CoV Urbani” value was found to be 0.3. Further, in experiment [2], the “Binding of a rabbit serum to linear peptides” value is recorded as 0.3 and the “Binding of a rabbit serum to looped peptides” value is listed as 0.3. Besides, in experiment [3], the “Binding of Control Serum Blood-Bank to Looped peptides” value is on record as 0.5, the “Binding of Control serum Blood-bank to linear peptides” value was found to be 0.7, the “Binding of Control serum LUMC to linear peptides” value was 0.5 and the “Binding of Control serum LUMC to looped peptides” value was found to be 0.5.

Take LSLLKVTAFQHQNSK: in experiment [1], the “Binding of serum 1a to linear peptides of protein X2” value turned out to be 0.4, the “Binding of serum 1a to looped/cyclic peptides of protein X2 of SARS-CoV Urbani” value turned out to be 0.3, the “Binding of serum 1b to linear peptides of protein X2” value was determined as 0.1 and the “Binding of serum 1b to looped/cyclic peptides of protein X2 of SARS-CoV Urbani” value is on record as 0.2. In addition, in experiment [1], the “Binding of serum 2 to linear peptides of protein X2” value is 0.1, the “Binding of serum 2 to looped/cyclic peptides of protein X2 of SARS-CoV Urbani” value was found to be 0.1, the “Binding of serum 6 to linear peptides of protein X2” value is listed as 0.2 and the “Binding of serum 6 to looped/cyclic peptides of protein X2 of SARS-CoV Urbani” value was determined as 0.1. Further, in experiment [1], the “Binding of serum 37 to linear peptides of protein X2” value was 0.4, the “Binding of serum 37 to looped/cyclic peptides of protein X2 of SARS-CoV Urbani” value is recorded as 0.2, the “Binding of serum 62 to linear peptides of protein X2” value is 0.2 and the “Binding of serum 62 to looped/cyclic peptides of protein X2 of SARS-CoV Urbani” value is reported as 0.3. For the same sequence, in experiment [1], the “Binding of serum London to linear peptides of protein X2” value is on record as 0.2, the “Binding of serum London to looped/cyclic peptides of protein X2 of SARS-CoV Urbani” value turned out to be 0.1, the “Binding of serum SARS-green to linear peptides of protein X2” value is 0.1 and the “Binding of serum SARS-green to looped/cyclic peptides of protein X2 of SARS-CoV Urbani” value is on record as 0.1. In experiment [1], the “Binding of serum SARS-yellow to linear peptides of protein X2” value was found to be 0.0 and the “Binding of serum SARS-yellow to looped/cyclic peptides of protein X2 of SARS-CoV Urbani” value is on record as 0.2. In experiment [2], the “Binding of a rabbit serum to linear peptides” value came out at 0.4 and the “Binding of a rabbit serum to looped peptides” value is 0.3. For the same sequence, in experiment [3], the “Binding of Control Serum Blood-Bank to Looped peptides” value was 0.4, the “Binding of Control serum Blood-bank to linear peptides” value is on record as 0.1, the “Binding of Control serum LUMC to linear peptides” value stood at 0.4 and the “Binding of Control serum LUMC to looped peptides” value is given as 0.3.

The record behind these values is patent US20070128217A1 (priority 2003, published 2007).
